Species on record: Rattus norvegicus
Experiment: DrugMatrix - Regimen: Daily Repeat
Type: toxicity, organism-based, Sprague-Dawley
Design: regimen Daily Repeat, gender Male, age 6-8 weeks
Conditions: in vivo, po, route oral GAVAGE, […]; for ABSOLUTE BASOPHIL / BASOPHIL / NUCLEATED RED BLOOD CELLS / ABSOLUTE EOSINOPHIL / EOSINOPHIL / HEMOGLOBIN / PLATELET COUNT / ABSOLUTE LYMPHOCYTE / ABSOLUTE MONOCYTE / ABSOLUTE SEGMENTED NEUTROPHIL / ERYTHROCYTE COUNT / HEMATOCRIT / LYMPHOCYTE / MEAN CORPUSCULAR HEMOGLOBIN CONCENTRATION / MEAN CORPUSCULAR VOLUME: tissue Blood; for ASPARTATE AMINOTRANSFERASE / ALANINE AMINOTRANSFERASE / ALBUMIN / ALKALINE PHOSPHATASE / BLOOD UREA NITROGEN / CARBON DIOXIDE / CREATINE PHOSPHOKINASE / CREATININE / LACTATE DEHYDROGENASE / TOTAL BILIRUBIN / TOTAL PROTEIN / URIC ACID: tissue Plasma
[1] = 0 mg/kg, 72 h, dose level Control, time 3 day
[2] = 0 mg/kg, 120 h, dose level Control, time 5 day
[3] = 0 mg/kg, dose level Control, time 7 day
[4] = 43 mg/kg, 72 h, dose level Low, time 3 day
[5] = 43 mg/kg, 120 h, dose level Low, time 5 day
[6] = 100 mg/kg, 72 h, dose level M1, time 3 day
[7] = 100 mg/kg, dose level M1, time 7 day
[8] = 215 mg/kg, 72 h, dose level M2, time 3 day

SMILES: CC(C)OC(=O)C(C)(C)Oc1ccc(C(=O)c2ccc(Cl)cc2)cc1 [FENOFIBRATE]
- ABSOLUTE BASOPHIL [1]: 0 CELLS/uL
- BASOPHIL [1]: 0%
- NUCLEATED RED BLOOD CELLS [1]: 0 /100WBC
- ABSOLUTE BASOPHIL [2]: 0 CELLS/uL
- ABSOLUTE EOSINOPHIL [2]: 0 CELLS/uL
- BASOPHIL [2]: 0%
- EOSINOPHIL [2]: 0%
- HEMOGLOBIN [2]: 13.5 G/DL
- PLATELET COUNT [2]: 807.17 x10E3/uL
- ASPARTATE AMINOTRANSFERASE [2]: 83 u/L
- ABSOLUTE BASOPHIL [3]: 0 CELLS/uL
- ABSOLUTE EOSINOPHIL [3]: 19 CELLS/uL
- ABSOLUTE LYMPHOCYTE [3]: 7803.5 CELLS/uL
- ABSOLUTE MONOCYTE [3]: 117.83 CELLS/uL
- ABSOLUTE SEGMENTED NEUTROPHIL [3]: 1093 CELLS/uL
- BASOPHIL [3]: 0%
- EOSINOPHIL [3]: 0.17%
- ERYTHROCYTE COUNT [3]: 5.84 x10E6/uL
- HEMATOCRIT [3]: 35.75%
- HEMOGLOBIN [3]: 13.87 G/DL
- LYMPHOCYTE [3]: 87.17%
- MEAN CORPUSCULAR HEMOGLOBIN CONCENTRATION [3]: 38.8 G/DL
- MEAN CORPUSCULAR VOLUME [3]: 61.25 fL
- NUCLEATED RED BLOOD CELLS [3]: 0 /100WBC
- PLATELET COUNT [3]: 1098.67 x10E3/uL
- ALANINE AMINOTRANSFERASE [3]: 66 u/L
- ALBUMIN [3]: 4.3 G/DL
- ALKALINE PHOSPHATASE [3]: 291.83 u/L
- ASPARTATE AMINOTRANSFERASE [3]: 80.5 u/L
- BLOOD UREA NITROGEN [3]: 15.67 mg/dL
- CARBON DIOXIDE [3]: 30 mmol/L
- CREATINE PHOSPHOKINASE [3]: 363.33 u/L
- CREATININE [3]: 0.25 mg/dL
- LACTATE DEHYDROGENASE [3]: 219.67 u/L
- TOTAL BILIRUBIN [3]: 0.12 mg/dL
- TOTAL PROTEIN [3]: 6.33 G/DL
- URIC ACID [3]: 0.75 mg/dL
- ABSOLUTE BASOPHIL [4]: 0 CELLS/uL
- ABSOLUTE EOSINOPHIL [4]: 76 CELLS/uL
- ABSOLUTE LYMPHOCYTE [4]: 10300 CELLS/uL
- ABSOLUTE MONOCYTE [4]: 0 CELLS/uL
- ABSOLUTE SEGMENTED NEUTROPHIL [4]: 324 CELLS/uL
- BASOPHIL [4]: 0%
- EOSINOPHIL [4]: 0.67%
- ERYTHROCYTE COUNT [4]: 5.15 x10E6/uL
- HEMATOCRIT [4]: 32.83%
- HEMOGLOBIN [4]: 12.83 G/DL
- LYMPHOCYTE [4]: 96.33%
- MEAN CORPUSCULAR HEMOGLOBIN CONCENTRATION [4]: 39.07 G/DL
- MEAN CORPUSCULAR VOLUME [4]: 63.77 fL
- NUCLEATED RED BLOOD CELLS [4]: 0.33 /100WBC
- PLATELET COUNT [4]: 922 x10E3/uL
- ALANINE AMINOTRANSFERASE [4]: 71 u/L
- ALBUMIN [4]: 3.7 G/DL
- ALKALINE PHOSPHATASE [4]: 389.33 u/L
- ASPARTATE AMINOTRANSFERASE [4]: 87.67 u/L
- BLOOD UREA NITROGEN [4]: 7 mg/dL
- CARBON DIOXIDE [4]: 22 mmol/L
- CREATINE PHOSPHOKINASE [4]: 129.33 u/L
- CREATININE [4]: 0.13 mg/dL
- LACTATE DEHYDROGENASE [4]: 74.33 u/L
- TOTAL BILIRUBIN [4]: 0.1 mg/dL
- TOTAL PROTEIN [4]: 4.67 G/DL
- URIC ACID [4]: 0.63 mg/dL
- ABSOLUTE BASOPHIL [5]: 0 CELLS/uL
- ABSOLUTE EOSINOPHIL [5]: 51.33 CELLS/uL
- ABSOLUTE LYMPHOCYTE [5]: 9774.33 CELLS/uL
- ABSOLUTE MONOCYTE [5]: 51.33 CELLS/uL
- ABSOLUTE SEGMENTED NEUTROPHIL [5]: 823 CELLS/uL
- BASOPHIL [5]: 0%
- EOSINOPHIL [5]: 0.67%
- ERYTHROCYTE COUNT [5]: 4.75 x10E6/uL
- HEMATOCRIT [5]: 30.63%
- HEMOGLOBIN [5]: 12.1 G/DL
- LYMPHOCYTE [5]: 91.33%
- MEAN CORPUSCULAR HEMOGLOBIN CONCENTRATION [5]: 39.5 G/DL
- MEAN CORPUSCULAR VOLUME [5]: 64.5 fL
- NUCLEATED RED BLOOD CELLS [5]: 0 /100WBC
- PLATELET COUNT [5]: 848.67 x10E3/uL
- ALANINE AMINOTRANSFERASE [5]: 54.67 u/L
- ALBUMIN [5]: 4.57 G/DL
- ALKALINE PHOSPHATASE [5]: 365.33 u/L
- ASPARTATE AMINOTRANSFERASE [5]: 98.33 u/L
- BLOOD UREA NITROGEN [5]: 12.33 mg/dL
- CARBON DIOXIDE [5]: 27 mmol/L
- CREATINE PHOSPHOKINASE [5]: 885.67 u/L
- CREATININE [5]: 0.27 mg/dL
- LACTATE DEHYDROGENASE [5]: 151.33 u/L
- TOTAL BILIRUBIN [5]: 0.13 mg/dL
- TOTAL PROTEIN [5]: 5.73 G/DL
- URIC ACID [5]: 0.97 mg/dL
- ABSOLUTE BASOPHIL [6]: 0 CELLS/uL
- ABSOLUTE EOSINOPHIL [6]: 17.33 CELLS/uL
- ABSOLUTE LYMPHOCYTE [6]: 10964.5 CELLS/uL
- ABSOLUTE MONOCYTE [6]: 176.17 CELLS/uL
- ABSOLUTE SEGMENTED NEUTROPHIL [6]: 858.67 CELLS/uL
- BASOPHIL [6]: 0%
- EOSINOPHIL [6]: 0.17%
- ERYTHROCYTE COUNT [6]: 5.66 x10E6/uL
- HEMATOCRIT [6]: 35.15%
- HEMOGLOBIN [6]: 14.03 G/DL
- LYMPHOCYTE [6]: 91.17%
- MEAN CORPUSCULAR HEMOGLOBIN CONCENTRATION [6]: 39.97 G/DL
- MEAN CORPUSCULAR VOLUME [6]: 62.08 fL
- NUCLEATED RED BLOOD CELLS [6]: 0 /100WBC
- ALANINE AMINOTRANSFERASE [6]: 54.33 u/L
- ALBUMIN [6]: 4.53 G/DL
- ALKALINE PHOSPHATASE [6]: 352 u/L
- ASPARTATE AMINOTRANSFERASE [6]: 82 u/L
- CARBON DIOXIDE [6]: 33 mmol/L
- CREATINE PHOSPHOKINASE [6]: 171.5 u/L
- CREATININE [6]: 0.19 mg/dL
- LACTATE DEHYDROGENASE [6]: 147.33 u/L
- TOTAL BILIRUBIN [6]: 0.17 mg/dL
- TOTAL PROTEIN [6]: 5.83 G/DL
- ABSOLUTE BASOPHIL [7]: 0 CELLS/uL
- ABSOLUTE EOSINOPHIL [7]: 14.83 CELLS/uL
- ABSOLUTE LYMPHOCYTE [7]: 8599.83 CELLS/uL
- ABSOLUTE SEGMENTED NEUTROPHIL [7]: 668 CELLS/uL
- BASOPHIL [7]: 0%
- EOSINOPHIL [7]: 0.17%
- ERYTHROCYTE COUNT [7]: 5.49 x10E6/uL
- HEMATOCRIT [7]: 33.87%
- HEMOGLOBIN [7]: 13.08 G/DL
- LYMPHOCYTE [7]: 92.33%
- MEAN CORPUSCULAR HEMOGLOBIN CONCENTRATION [7]: 38.63 G/DL
- MEAN CORPUSCULAR VOLUME [7]: 61.8 fL
- NUCLEATED RED BLOOD CELLS [7]: 0 /100WBC
- PLATELET COUNT [7]: 1292.17 x10E3/uL
- ALANINE AMINOTRANSFERASE [7]: 74.17 u/L
- ALBUMIN [7]: 5.1 G/DL
- ALKALINE PHOSPHATASE [7]: 331.67 u/L
- ASPARTATE AMINOTRANSFERASE [7]: 84.67 u/L
- BLOOD UREA NITROGEN [7]: 15.33 mg/dL
- CARBON DIOXIDE [7]: 31.67 mmol/L
- CREATINE PHOSPHOKINASE [7]: 252 u/L
- CREATININE [7]: 0.24 mg/dL
- LACTATE DEHYDROGENASE [7]: 121.33 u/L
- TOTAL BILIRUBIN [7]: 0.1 mg/dL
- TOTAL PROTEIN [7]: 6.25 G/DL
- ABSOLUTE BASOPHIL [8]: 0 CELLS/uL
- ABSOLUTE EOSINOPHIL [8]: 60.33 CELLS/uL
- ABSOLUTE LYMPHOCYTE [8]: 18749.67 CELLS/uL
- ABSOLUTE MONOCYTE [8]: 284.33 CELLS/uL
- ABSOLUTE SEGMENTED NEUTROPHIL [8]: 1839 CELLS/uL
- BASOPHIL [8]: 0%
- EOSINOPHIL [8]: 0.33%
- ERYTHROCYTE COUNT [8]: 5.51 x10E6/uL
- HEMATOCRIT [8]: 33.9%
